Results taken from patent US20060074035A1, “Dinucleotide inhibitors of de novo RNA polymerases for treatment or prevention of viral infections” (priority 2002, published 2006).

Legend:
Type in all cases: biochemical
[1] = target: T1, HCV polymerase (Hepatitis C virus genotype 1a, UniProt P27958); assay: GpG dinucleotide-primed RNA synthesis; conditions: dinucleotide primer GpG; RNA template 5′ AAAAAAAACC 3′; FIG. 4
T1 construct: a particularly preferred RNA polymerases is the HCV NS5B polypeptide
T1 sequence (P27958 2421-3011): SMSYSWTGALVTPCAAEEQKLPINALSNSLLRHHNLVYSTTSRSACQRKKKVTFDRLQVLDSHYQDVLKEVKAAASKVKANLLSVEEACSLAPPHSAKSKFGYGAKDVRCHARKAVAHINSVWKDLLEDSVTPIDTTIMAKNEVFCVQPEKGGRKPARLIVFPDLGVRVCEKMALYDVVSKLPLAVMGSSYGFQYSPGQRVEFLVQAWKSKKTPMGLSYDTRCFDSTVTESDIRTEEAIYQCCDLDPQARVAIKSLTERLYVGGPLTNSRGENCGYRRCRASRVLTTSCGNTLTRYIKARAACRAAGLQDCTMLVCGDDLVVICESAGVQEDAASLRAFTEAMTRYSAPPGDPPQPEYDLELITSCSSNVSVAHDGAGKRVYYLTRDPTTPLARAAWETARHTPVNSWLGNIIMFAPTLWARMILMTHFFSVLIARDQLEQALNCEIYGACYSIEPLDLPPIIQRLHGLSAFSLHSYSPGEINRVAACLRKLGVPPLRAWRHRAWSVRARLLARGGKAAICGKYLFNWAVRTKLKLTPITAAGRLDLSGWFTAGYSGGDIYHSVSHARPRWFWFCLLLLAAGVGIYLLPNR
Description: (§1) It was also observed that certain dinucleotide analogues were able to inhibit dinucleotide-primed RNA synthesis. […] Furthermore, this inhibitory activity is sequence specific. When a different dinucleotide primer (GpG) was used to prime RNA synthesis from the. […] These observations further support the model that base pairing capability between the dinucleotide compound and the template terminal bases is important for achieving sufficient inhibition of HCV polymerase.

[2] = target: T2, HCV NS5B (Hepatitis C virus genotype 1a, UniProt P27958); assay: HCV NS5B de novo initiation assay, GTP as initiation nucleotide
T2 construct: a particularly preferred RNA polymerases is the HCV NS5B polypeptide
T2 sequence (P27958 2421-3011): as above
Description: (§2) In vitro RNA-dependent RNA polymerase assay was used to evaluate activity of dinucleotide compounds as inhibitors of HCV polymerase. Examples of such compounds are illustrated below as compounds A and B in.

[3] = target: T1, HCV polymerase; assay: GpC dinucleotide-primed RNA synthesis
Description: as §1

[4] = target: T1, HCV polymerase; assay: HCV NS5B de novo initiation assay, ATP as initiation nucleotide
Procedure: as §2
To further determine whether this inhibitory effect of HCV polymerase is specific for a particular initiation nucleotide, de novo initiation assay was performed using ATP as the initiation nucleotide (template RNA: 5′ AAAAAAAAGU 3′).

| SMILES | inhibition of polymerase activity (GpG-primed RNA synthesis) [1] | IC50 [2] | IC50 [3] | IC50 [4] |
| --- | --- | --- | --- | --- |
| COC1C(OP(O)(=S)OCC2CC(O)C(n3ccc(N)nc3=O)O2)C(COP(=O)(O)O)OC1n1cnc2c(=O)[nH]c(N)nc21 (stereo not shown) [compound A] | lost the ability to inhibit the polymerase activity | 20 µM | 50 µM | ~90 µM |
| COC1[C@@H](COP(O)(=S)OC2[C@@H](COP(=O)(O)O)O[C@@H](n3cnc4c(=O)[nH]c(N)nc43)[C@H]2OC)O[C@@H](n2ccc(N)nc2=O)[C@H]1O (stereo partly shown) [compound B] | lost the ability to inhibit the polymerase activity | 65 µM | ~80 µM | – |
